Like-named read-outs stand apart in the source and are kept apart here.
Assays:
[1] = system: UnBGl1; conditions: optimum pH 6.5, 55 °C, 10 min
[2] = system: UnBGl1; conditions: pH 6.0, 55 °C, 10 min
[3] = system: UnBGl1; assay: pNP release, absorbance […] nm, Michaelis-Menten; type: biochemical, soil metagenome; conditions: pH 6.0, 55 °C, 10 min
[4] = system: UnBGl1; conditions: pH 6.0, 50 °C, 30 min
[5] = system: UnBGl1; conditions: optimum pH 5.5, 50 °C, 30 min

Row | Compound | Km [1] | Km [2] | Km [3] | Km [4] | Km [5]
1 | O=[N+]([O-])c1ccc(O[C@@H]2O[C@H](CO)[C@@H](O)[C@H](O)[C@H]2O)cc1 [4-nitrophenyl β-D-glucopyranoside] | 0.65 ± 0.04 mM | 7.35 ± 3 mM | 0.92 ± 0.05 mM | – | –
2 | OC[C@H]1O[C@@H](O[C@H]2[C@H](O)[C@@H](O)C(O)O[C@@H]2CO)[C@H](O)[C@@H](O)[C@@H]1O (some centres unmarked) [cellobiose] | – | – | – | 34.6 ± 2.4 mM | 22.9 ± 1.1 mM
